Reference: patent US7122673B2, “Preparation of fused polycyclic alkaloids by ring closure of azomethine ylides, novel compounds thereof and their use as chemotherapeutic agents” (The Australian National University, priority 1997, dated 2006)

How the values were obtained:
[1] = test system: fertilised sea urchin; settings: fertilised sea urchin assay; background statement; cited from earlier work
[2] = test system: A549 cell lines; settings: cell line in culture; background statement; cited from earlier work
[3] = test system: P388 cell lines; settings: cell line in culture; background statement; cited from earlier work
[4] = test system: lung cancer cell lines; settings: acting as a Type IV microtubule poison; background statement; cited from earlier work

Compound	cytotoxicity against A549 [2]	cytotoxicity against P388 [3]	further results
COc1cc(-c2c3n(c4c(=O)oc5cc(O)c(OC)cc5c24)CCc2c-3cc(OC)c(OC)c2OC)ccc1O [Lamellarin C]			inhibition of cell division [1]: inhibition of cell division
Lamellarin I	comparable and significant cytotoxicity	comparable and significant cytotoxicity	
COc1cc(-c2c3n(c4c(=O)oc5cc(O)c(OC)cc5c24)CCc2cc(OC)c(OC)cc2-3)ccc1O [Compound 35, 10-Deoxylamellarin K]			melting point: 292 to 294 °C
COc1cc(-c2c3c4cc(OC)c(O)cc4oc(=O)c3n3ccc4cc(O)c(OC)cc4c23)ccc1O [Lamellarin D]			inhibition of cell division [1]: inhibition of cell division
COc1ccc(-c2c3n(c4c(=O)oc5cc(O)c(OC)cc5c24)CCc2cc(O)c(OC)cc2-3)cc1O [Lamellarin L]	comparable and significant cytotoxicity	comparable and significant cytotoxicity	
COc1ccc(-c2c3c4cc(OC)c(O)cc4oc(=O)c3n3ccc4cc(O)c(OC)cc4c23)cc1O [Lamellarin N]			activity in lung cancer cell lines [4]: exhibit activity
Lamellarin K	comparable and significant cytotoxicity	comparable and significant cytotoxicity	
